Counter-ions that a name gives are not always drawn.
Columns and labels:
5-HT2A [1] = molecular target: T1, 5-HT2A (Rattus norvegicus, UniProt P14842); test: 5-HT2 Receptor Binding Assay ([125I]DOI competition); settings: competition for [125I]DOI binding, rat or human cerebral cortex homogenates
Description: 5-HT2 Receptor Binding Assay
Aliquots of post mortem rat or human cerebral cortex homogenates (400 μL) dispersed in 50 mM Tris HCl buffer (pH 7.4) are incubated with [^125I]DOI (80 pM final) in the absence or presence of methiothepin (10 μM final) to define total and non-specific binding, respectively, in a total volume of 0.5 mL. The assay mixture is incubated for 1 hour at 23° C. in polypropylene tubes and the assays terminated by rapid vacuum filtration over Whatman GF/B glass fiber filters previously soaked in 0.3% polyethyleneimine using ice-cold buffer. Test compounds (at different concentrations) are substituted for methiothepin. Filter-bound radioactivity is determined by scintillation spectrometry on a beta counter. The data are analyzed using a non-linear, iterative curve-fitting computer program [Trends Pharmacol. Sci., 16, 413 (1995)] to determine the compound affinity parameter. The concentration of the compound needed to inhibit the [^125I]DOI binding by 50% of the maximum is termed the IC50 or Ki value.

5-HT2A [2] = molecular target: T1, 5-HT2A; test: 5-HT2 functional Assay: [Ca2+]i Mobilization (FLIPR); assay type: cell-based; set-up: endogenous in cells; host or cells: A7r5 rat vascular smooth muscle cells; settings: for EC50: [Ca2+]i mobilization, A7r5 rat vascular smooth muscle cells, FLIPR; for Emax: percentage of a maximum 5-HT-induced response, A7r5 cells
Description: 5-HT2 functional Assay: [Ca^2+]i Mobilization
The receptor-mediated mobilization on intracellular calcium ([Ca^2+]i) was studied using the Fluorescence Imaging Plate Reader (FLIPR) instrument. Rat vascular smooth muscle cells, A7r5, were grown in a normal media of DMEM/10% FBS and 10 μg/mL gentamycin. Confluent cell monolayers were trypsinized, pelleted, and re-suspended in normal media. Cells were seeded in a 50 μL volume at a density of 20,000 cells/well in a black wall, 96-well tissue culture plate and grown for 2 days.
On the day of the experiment, one vial of FLIPR Calcium Assay Kit dye was re-suspended in 50 mL of a FLIPR buffer consisting of Hank's Balanced Salt Solution (HBSS), 20 mM HEPES, and 2.5 mM probenecid, pH 7.4. Cells were loaded with the calcium-sensitive dye by addition of an equal volume (50 μL) to each well of the 96-well plate and incubated with dye for 1 h at 23° C.
Typically, test compounds were stored at 25 μM in 50% DMSO/50% Ethanol solvent. Compounds were diluted 1:50 in 20% DMSO/20% Ethanol. For “hit” screening, compounds were further diluted 1:10 in FLIPR buffer and tested at a final concentration of 10 μM. For dose-response experiments, compounds were diluted 1:50 in FLIPR buffer and serially diluted 1:10 to give a 5- or 8-point dose-response curve.
The compound plate and cell plate were placed in the FLIPR instrument. At the beginning of an experimental run, a signal test was performed to check the basal fluorescence signal from the dye-loaded cells and the uniformity of the signal across the plate. The basal fluorescence was adjusted between 8000-12000 counts by modifying the exposure time, the camera F-stop, or the laser power. Instrument settings for a typical assay were the following: laser power 0.3-0.6 W, camera F-stop F/2, and exposure time 0.4 sec. An aliquot (25 μL) of the test compound was added to the existing 100 μL dye-loaded cells at a dispensing speed of 50 μL/sec. Fluorescence data were collected in real-time at 1.0 sec intervals for the first 60 secs and at 6.0 sec intervals for an additional 120 secs. Responses were measured as peak fluorescence intensity minus basal and where appropriate were expressed as a percentage of a maximum 5-HT-induced response. When the compounds were tested as antagonists against 10 μM 5-HT, they were incubated with the cells for 15 minutes prior to the addition of 5-HT.

T1 sequence (P14842 whole entry): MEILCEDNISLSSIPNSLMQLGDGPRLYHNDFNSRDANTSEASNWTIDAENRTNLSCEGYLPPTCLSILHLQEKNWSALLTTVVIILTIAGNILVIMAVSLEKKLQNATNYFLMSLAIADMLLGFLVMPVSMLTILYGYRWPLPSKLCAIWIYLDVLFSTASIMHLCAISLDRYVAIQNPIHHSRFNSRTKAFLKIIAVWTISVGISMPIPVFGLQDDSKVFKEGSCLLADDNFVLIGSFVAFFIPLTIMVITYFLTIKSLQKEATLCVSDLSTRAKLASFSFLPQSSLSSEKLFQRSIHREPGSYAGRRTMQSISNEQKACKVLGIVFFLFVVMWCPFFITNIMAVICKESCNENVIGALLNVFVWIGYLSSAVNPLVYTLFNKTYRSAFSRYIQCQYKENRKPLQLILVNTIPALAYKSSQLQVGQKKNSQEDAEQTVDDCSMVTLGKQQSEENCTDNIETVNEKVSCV

Structure (SMILES) | melting point [°C] | IC50 (5-HT2A [1]) [µM] | EC50 (5-HT2A [2]) [µM] | Emax (5-HT2A [2]) [%]
C[C@H](N)Cn1ncc2ccc3c(c21)NC(=O)CO3.Cl [Example 2, 1-((S)-2-Aminopropyl)-1,9-dihydro-7H-[1,4]oxazino[2,3-g]indazol-8-one hydrochloride] | 293 to 295 | 0.0035 | 0.195 | 60
C[C@H](N)Cn1ncc2ccc3c(c21)N(C)C(=O)CO3 [Example 3, 1-((S)-2-Aminopropyl)-1,9-dihydro-9-methyl-7H-[1,4]oxazino[2,3-g]indazol-8-one hydrochloride] | – | 0.0076 | 0.55 | 41
C[C@H](N)Cn1ncc2ccc3c(c21)N(C)CCO3.O=C(O)/C=C/C(=O)O [Example 1, (S)-2-(8,9-dihydro-9-methyl-7H-[1,4]oxazino[2,3-g]indazol-1-yl)-1-methylethylamine fumarate] | 185 to 187 | 0.001 | 0.02 | 82
